Test results published in ChEMBL document CHEMBL4033619, “Autophagy antagonizes apoptosis induced by flavan enantiomers from Daphne giraldii in hepatic carcinoma cells in vitro” (Eur J Med Chem, 2017).

What was measured:
Format in all cases: functional, cell-based
[1] = test system: Hep 3B2; assay: Cytotoxicity against human Hep3B cells by MTT assay
[2] = test system: MCF7; assay: Growth inhibition of human MCF7 cells after 48 hrs by MTT assay
[3] = test system: A549; assay: Growth inhibition of human A549 cells after 48 hrs by MTT assay
[4] = test system: Hep 3B2; assay: Growth inhibition of human Hep3B cells after 48 hrs by MTT assay
[5] = test system: A549; assay: Cytotoxicity against human A549 cells by MTT assay
[6] = test system: MCF7; assay: Cytotoxicity against human MCF7 cells by MTT assay
[7] = test system: HepG2; assay: Growth inhibition of human HepG2 cells after 48 hrs by MTT assay
[8] = test system: HepG2; assay: Cytotoxicity against human HepG2 cells by MTT assay

## CC1(C)CCc2c(C3CCc4ccc(O)cc4O3)ccc(O)c2O1 (racemic)
[1]
  IC50: 51 µM
[2]
  growth inhibition (GI): Dose-dependent effect
[3]
  growth inhibition (GI): Dose-dependent effect
[4]
  growth inhibition (GI): Dose-dependent effect
[5]
  IC50: > 100 µM
[6]
  IC50: > 100 µM
[7]
  growth inhibition (GI): Dose-dependent effect
[8]
  IC50: > 100 µM

## CC(C)=CCc1c(C2CCc3ccc(O)cc3O2)ccc(O)c1O (racemic)
[1]
  IC50: 81.2 µM
[2]
  growth inhibition (GI): Dose-dependent effect
[3]
  growth inhibition (GI): Dose-dependent effect
[4]
  growth inhibition (GI): Dose-dependent effect
[5]
  IC50: > 100 µM
[6]
  IC50: > 100 µM
[7]
  growth inhibition (GI): Dose-dependent effect
[8]
  IC50: > 100 µM

## O=c1[nH]cc(F)c(=O)[nH]1 [FLUOROURACIL]
[1]
  IC50: 11.9 µM
[6]
  IC50: 30 µM
[8]
  IC50: 32.6 µM

## CC1(C)C=Cc2c([C@H]3CCc4ccc(O)cc4O3)ccc(O)c2O1
[1]
  IC50: 63.6 µM
[2]
  growth inhibition (GI): Dose-dependent effect
[3]
  growth inhibition (GI): Dose-dependent effect
[4]
  growth inhibition (GI): Dose-dependent effect
[5]
  IC50: > 100 µM
[6]
  IC50: > 100 µM
[7]
  growth inhibition (GI): Dose-dependent effect
[8]
  IC50: > 100 µM

## CC(C)=CCc1c([C@@H]2CCc3ccc(O)cc3O2)cc2c(c1O)OC(C)(C)C=C2 [KAZINOL B]
[1]
  IC50: 39 µM
[2]
  growth inhibition (GI): Dose-dependent effect
[3]
  growth inhibition (GI): Dose-dependent effect
[4]
  growth inhibition (GI): Dose-dependent effect
[5]
  IC50: > 100 µM
[6]
  IC50: > 100 µM
[7]
  growth inhibition (GI): Dose-dependent effect
[8]
  IC50: 58.4 µM

## CC1(C)CCc2c([C@@H]3CCc4ccc(O)cc4O3)ccc(O)c2O1
[1]
  IC50: 44.7 µM
[2]
  growth inhibition (GI): Dose-dependent effect
[3]
  growth inhibition (GI): Dose-dependent effect
[4]
  growth inhibition (GI): Dose-dependent effect
[5]
  IC50: > 100 µM
[6]
  IC50: > 100 µM
[7]
  growth inhibition (GI): Dose-dependent effect
[8]
  IC50: > 100 µM

## CC(C)=CCc1c(C2CCc3ccc(O)cc3O2)cc2c(c1O)OC(C)(C)C=C2 (racemic)
[1]
  IC50: 97.8 µM
[2]
  growth inhibition (GI): Dose-dependent effect
[3]
  growth inhibition (GI): Dose-dependent effect
[4]
  growth inhibition (GI): Dose-dependent effect
[5]
  IC50: 92.5 µM
[6]
  IC50: > 100 µM
[7]
  growth inhibition (GI): Dose-dependent effect
[8]
  IC50: 92.3 µM
